The results in this text go back to patent US20260356851A1, “TRICYCLIC COMPOUNDS AND USES THEREOF” (HUTCHMED LIMITED, priority 2023, published 2026).

One may read the IC50 as the midpoint of a concentration-inhibition curve.

What all share (assay type): cell-based
Experiment [1] has as its target T1, pERK1/2 (Thr202/Tyr204), NCI-1H358 (KRAS G12C) (Homo sapiens, UniProt P01116, G12C).
T1 construct: pERK1/2 HTRF read-out
Put plainly: Assay of intracellular pERK1/2 (Thr202/Tyr204) phosphorylation in NCI-H358 cells (KRAS G12C). The conditions noted are these: pERK1/2, 2 days, read-out: NCI-H358 (KRAS G12C) IC50. How it is done: (§1) Example 2: Assay of intracellular pERK1/2 (Thr202/Tyr204)phosphorylation
(§2) 1. Reagents and materials: • pERK1/2 (Thr202/Tyr2O4) HIRE kit, Cisbio, Cat #64ERKPEH; • OptiPlate™-384-well plate, PerkinElmer, Cat #6007299; • 96-well plate, Coming, Cat #353072; • Instrument: EnVision2104, PerkinElmer; • Cell lines: NCI-1H358 (KRAS G12C), ATCC, CRL-5807; PANC-1 (KRAS G121D), ATCC, CRL-1469; NCI-1H441 (KRAS G12V), ATCC, HTB-174.
(§3) 2. Preparation of Reaction Solutions
(§4) • A test compound was dissolved in DMSO, diluted to 200.0 μM and further diluted 3-fold to prepare a series of test compounds at concentrations of 66.7, 22.2, 7.4, 2.5, 0.82, 0.27, 0.09 μM etc. Then 10 μL of the compound at different dilution concentrations was added to 190 μL of a DMEM medium to prepare a 10× test compound; • 1× cell lysis buffer: 4× cell lysis stock solution (provided by the kit) was diluted 4-fold with deionized water, and then 10% 100× blocking stock solution (provided by the kit) was added thereto. • pERK1/2 detection solution (prepared just before use): the pERK1/2 d2 antibody (provided by the kit) and pERK1/2 Cryptate antibody (provided by the kit) were diluted with the detection solution (provided by the kit) at a ratio of 1:1:38.
(§5) • Cells were inoculated into a 96-well plate (100 μL/well) at a density of 10000-12000/well. No cell was inoculated into a negative control well, and only the cell medium was added at 100 μL/well. The plate was placed in a cell incubator at 5% CO2 and 37° C. overnight. • 10 μL of the 10× test compound was added to the 100 μL cell culture 96-well plate; both the positive control well (that is, the control hole without chemical compound treatment) and the negative control well were charged with 10 μL of a 5% DMSO culture solution; and the plate was cultured in a cell incubator at 5% CO2 and 37° C. for 2 days. • The medium in the 96-well plate was removed; 50 μL of the 1× cell lysis buffer was added to each of the wells; the plate was placed in a microplate shaker; and lysis under shaking was carried out at 900 rpm at room temperature for 1 hour. • 16 μL of the lysis buffer in the 96-well plate was taken and transferred to a 384-well plate, followed by centrifugation at 1000 rpm for 30 s; then 4 μL of pERK1/2 detection solution was added to each well, followed by centrifugation at 1000 rpm for 30 s; and the 384-well plate was sealed with a sealing membrane and incubated at 25° C. on a low-speed shaker at 100 rpm in the dark for 2 hours. • The fluorescence value (RFU) of each well was detected on EnVision2104, with an emission wavelength 1 being 665 nm and an emission wavelength 2 being 615 nm.
(§6) Fluorescence ratio=fluorescence value665 nm/fluorescence value615 nm
(§7) Inhibition rate (%)=100−((fluorescence ratio of compound well−fluorescence ratio of negative control well)/(fluorescence ratio of positive control well−fluorescence ratio of negative control well))×100
(§8) wherein: • the fluorescence ratio of compound well refers to the fluorescence ratio of the well containing the test compounds; • the fluorescence ratio of negative control well refers to the fluorescence ratio of the cell-free control well; • the fluorescence ratio of positive control well refers to the fluorescence ratio of the cell well treated with 0.5% DMSO.
(§9) IC50 value: obtained by calculation using XL-Fit 5.0 software.

Experiment [2] concerns the target T2, pERK1/2 (Thr202/Tyr204), PANC-1 (KRAS G121D) (Homo sapiens, UniProt P01116, G12D).
T2 construct: pERK1/2 HTRF read-out
In words: Assay of intracellular pERK1/2 (Thr202/Tyr204) phosphorylation in PANC-1 cells (KRAS G12D). The conditions noted are these: pERK1/2, 2 days, read-out: PANC-1 (KRAS G12D) IC50. On the procedure: as §1, §2, §3, §4, §5, §6, §7, §8, §9

Experiment [3] has as its target T3, pERK1/2 (Thr202/Tyr204), NCI-1H441 (KRAS G12V) (Homo sapiens, UniProt P01116, G12V).
T3 construct: pERK1/2 HTRF read-out
Put plainly: Assay of intracellular pERK1/2 (Thr202/Tyr204) phosphorylation in NCI-H441 cells (KRAS G12V). The conditions noted are these: pERK1/2, 2 days, read-out: NCI-H441 (KRAS G12V) IC50. How it is done:
as §1, §2, §3, §4, §5, §6, §7, §8, §9

T2 sequence (P01116 1-188 isoform P01116-2 G12D): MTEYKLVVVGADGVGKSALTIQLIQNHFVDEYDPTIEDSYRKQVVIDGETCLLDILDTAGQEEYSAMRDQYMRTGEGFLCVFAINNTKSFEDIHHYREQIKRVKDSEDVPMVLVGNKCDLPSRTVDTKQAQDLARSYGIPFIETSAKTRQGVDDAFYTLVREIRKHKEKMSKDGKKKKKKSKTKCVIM
T1 sequence (P01116 1-188 isoform P01116-2 G12C): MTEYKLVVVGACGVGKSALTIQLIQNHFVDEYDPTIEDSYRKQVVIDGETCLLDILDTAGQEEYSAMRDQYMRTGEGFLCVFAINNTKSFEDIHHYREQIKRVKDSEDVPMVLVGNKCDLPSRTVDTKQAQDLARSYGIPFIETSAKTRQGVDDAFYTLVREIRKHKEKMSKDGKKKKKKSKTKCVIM
T3 sequence (P01116 1-188 isoform P01116-2 G12V): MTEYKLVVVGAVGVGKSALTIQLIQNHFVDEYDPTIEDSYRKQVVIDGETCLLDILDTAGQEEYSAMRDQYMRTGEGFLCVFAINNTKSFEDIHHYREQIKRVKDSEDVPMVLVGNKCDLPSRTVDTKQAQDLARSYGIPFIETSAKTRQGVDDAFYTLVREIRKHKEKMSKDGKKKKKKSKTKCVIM

On to `CC(c1cccnc1N)N1CCOc2nc(-c3cc(O)cc(F)c3C3CC3)c(F)c3nc(OC[C@@H]4CCCN4C)nc1c23` (single isomer, unassigned) [Compound 34, 3-(10-((R or S)-1-(2-aminopyridin-3-yl)ethyl)-4-fluoro-2-(((S)-1-methylpyrrolidin-2-yl)methoxy)-9,10-dihydro-8H-7-oxa-1,3,6,10-tetraazacyclohepta[de]naphthalen-5-yl)-4-cyclopropyl-5-fluorophenol], for which the IC50 in experiment [1], in experiment [2] and in experiment [3] was over 1000 nM throughout.

Consider `CC(c1cccnc1N)N1CCOc2nc(-c3cc(O)cc(F)c3C3CC3)c(F)c3nc(OC[C@@H]4CCCN4C)nc1c23` (single isomer, unassigned) [Compound 35, 3-(10-((R or S)-1-(2-aminopyridin-3-yl)ethyl)-4-fluoro-2-(((S)-1-methylpyrrolidin-2-yl)methoxy)-9,10-dihydro-8H-7-oxa-1,3,6,10-tetraazacyclohepta[de]naphthalen-5-yl)-4-cyclopropyl-5-fluorophenol], for which the IC50 in experiment [1] was 18 nM; in experiment [2] it was 399 nM; in experiment [3], 37 nM.

`C[C@H](c1cccnc1N)N1CCOc2nc(-c3c(C(F)(F)F)ccc4[nH]ncc34)c(F)c3nc(OC[C@@H]4CCN4CC(F)F)nc1c23` (single isomer, unassigned) [Compound 38, 3-((1R or 1S)-1-(2-(((S)-1-(2,2-difluoroethyl)azetidin-2-yl)methoxy)-4-fluoro-5-(5-(trifluoromethyl)-1H-indazol-4-yl)-8,9-dihydro-10H-7-oxa-1,3,6,10-tetraazacyclohepta[de]naphthalen-10-yl)ethyl)pyridin-2-amine]: the figures for the IC50 in experiment [1], in experiment [2] and in experiment [3] were 595 nM, over 1000 nM and 643 nM, respectively.

For the compound `C[C@@H](c1cccnc1N)N1CCOc2nc(-c3c(C(F)(F)F)ccc4[nH]ncc34)c(F)c3nc(OC[C@@H]4CCN4CC(F)F)nc1c23` (single isomer, unassigned) [Compound 39, 3-((1R or 1S)-1-(2-(((S)-1-(2,2-difluoroethyl)azetidin-2-yl)methoxy)-4-fluoro-5-(5-(trifluoromethyl)-1H-indazol-4-yl)-8,9-dihydro-10H-7-oxa-1,3,6,10-tetraazacyclohepta[de]naphthalen-10-yl)ethyl)pyridin-2-amine], the IC50 in experiment [1] amounted to 2 nM; in experiment [2] it was 237 nM; in experiment [3] it was 7 nM.

As to `CC(c1cccnc1N)N1CCOc2nc(-c3cc(O)cc4ccc(F)c(F)c34)c(F)c3nc(OC[C@@H]4CCCN4C)nc1c23` (single isomer, unassigned) [Compound 41, 4-(10-((R or S)-1-(2-aminopyridin-3-yl)ethyl)-4-fluoro-2-(((S)-1-methylpyrrolidin-2-yl)methoxy)-9,10-dihydro-8H-7-oxa-1,3,6,10-tetraazacyclohepta[de]naphthalen-5-yl)-5,6-difluoronaphthalen-2-ol], the IC50 in experiment [1] was 223 nM; in experiment [2], over 1000 nM; in experiment [3], 820 nM.

In the case of `CC(c1cccnc1N)N1CCOc2nc(-c3cc(O)cc4ccc(F)c(F)c34)c(F)c3nc(OC[C@@H]4CCCN4C)nc1c23` (single isomer, unassigned) [Compound 42, 4-(10-((R or S)-1-(2-aminopyridin-3-yl)ethyl)-4-fluoro-2-(((S)-1-methylpyrrolidin-2-yl)methoxy)-9,10-dihydro-8H-7-oxa-1,3,6,10-tetraazacyclohepta[de]naphthalen-5-yl)-5,6-difluoronaphthalen-2-ol], the results for the IC50 in experiment [1], in experiment [2] and in experiment [3] were 0.9 nM, 69 nM and 5 nM, respectively.

Turning to `CC(c1cccnc1N)N1CCOc2nc(-c3cc(O)cc(Cl)c3C3CC3)c(F)c3nc(OC[C@@]45CCCN4C[C@H](F)C5)nc1c23` (single isomer, unassigned) [Compound 43, 3-(10-((R or S)-1-(2-aminopyridin-3-yl)ethyl)-4-fluoro-2-(((2R,7aS)-2-fluorotetrahydro-1H-pyrrolizin-7a(5H)-yl)methoxy)-9,10-dihydro-8H-7-oxa-1,3,6,10-tetraazacyclohepta[de]naphthalen-5-yl)-5-chloro-4-cyclopropylphenol], the IC50 in experiment [1], in experiment [2] and in experiment [3] was over 1000 nM in each case.

Consider `CC(c1cccnc1N)N1CCOc2nc(-c3cc(O)cc(Cl)c3C3CC3)c(F)c3nc(OC[C@@]45CCCN4C[C@H](F)C5)nc1c23` (single isomer, unassigned) [Compound 44, 3-(10-((R or S)-1-(2-aminopyridin-3-yl)ethyl)-4-fluoro-2-(((2R,7aS)-2-fluorotetrahydro-1H-pyrrolizin-7a(5H)-yl)methoxy)-9,10-dihydro-8H-7-oxa-1,3,6,10-tetraazacyclohepta[de]naphthalen-5-yl)-5-chloro-4-cyclopropylphenol], for which the half-maximal inhibitory concentration (IC50) in experiment [1] was 0.1 nM; in experiment [2], 3 nM; in experiment [3], 0.6 nM.

Consider `CC(c1cccnc1N)N1CCOc2nc(-c3cc(O)cc(F)c3C3CC3)c(F)c3nc(OC[C@@H]4CC(F)(F)CN4C)nc1c23` (single isomer, unassigned) [Compound 48, 3-(10-((R or S)-1-(2-aminopyridin-3-yl)ethyl)-2-(((S)-4,4-difluoro-1-methylpyrrolidin-2-yl)methoxy)-4-fluoro-9,10-dihydro-8H-7-oxa-1,3,6,10-tetraazacyclohepta[de]naphthalen-5-yl)-4-cyclopropyl-5-fluorophenol], for which the IC50 in experiment [1], in experiment [2] and in experiment [3] was over 1000 nM throughout.

Consider `CC(c1cccnc1N)N1CCOc2nc(-c3cc(O)cc(F)c3C3CC3)c(F)c3nc(OC[C@@H]4CC(F)(F)CN4C)nc1c23` (single isomer, unassigned) [Compound 49, 3-(10-((R or S)-1-(2-aminopyridin-3-yl)ethyl)-2-(((S)-4,4-difluoro-1-methylpyrrolidin-2-yl)methoxy)-4-fluoro-9,10-dihydro-8H-7-oxa-1,3,6,10-tetraacyclohepta[de]naphthalen-5-yl)-4-cyclopropyl-5-fluorophenol], for which the IC50 stood at 15 nM in experiment [1], 557 nM in experiment [2] and 22 nM in experiment [3].

Take `CC(c1cccnc1N)N1CCOc2nc(-c3cc(O)cc4ccc(F)c(F)c34)c(F)c3nc(OC[C@@H]4CC(F)(F)CN4C)nc1c23` (single isomer, unassigned) [Compound 50, 4-(10-((R or S)-1-(2-aminopyridin-3-yl)ethyl)-2-(((S)-4,4-difluoro-1-methylpyrrolidin-2-yl)methoxy)-4-fluoro-9,10-dihydro-8H-7-oxa-1,3,6,10-tetraazacyclohepta[de]naphthalen-5-yl)-5,6-difluoronaphthalen-2-ol]: the IC50 in experiment [1] is 916 nM; in experiment [2], over 1000 nM; in experiment [3], over 1000 nM.
